Reference: US20260200928A1, “THERAPEUTIC COMPOUNDS” (Sanofi, priority 2022, published 2026)
Structures can show the parent of a compound that is named as a salt.

Biological target: T1, human IL-17A (Homo sapiens, UniProt Q16552)
T1 construct: purchased R&D Systems 7955-IL/CF
T1 sequence (Q16552 24-155): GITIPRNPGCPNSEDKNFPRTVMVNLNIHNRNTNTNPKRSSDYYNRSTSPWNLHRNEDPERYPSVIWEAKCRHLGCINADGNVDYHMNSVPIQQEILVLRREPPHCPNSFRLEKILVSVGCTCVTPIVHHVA
Assay: IL-17A AlphaLISA competition assay (block of IL-17A binding to its receptor IL-17RA)
Details: mean IC50 (n≥2), block of IL-17A binding to IL-17RA
Method in brief: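 Bead-based AlphaLISA competition in PBS with 0.05% Tween-20 and 0.1% BSA: compound first meets human IL-17A (7.5 nM stock) for 30 min, then IL-17RA/Fc (5 nM stock) for 90 min, all at room temperature, before acceptor/donor bead capture. IC50 fitted 4-parameter, DMSO and 4 μM reference inhibitor as controls; at least duplicate.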

SMILES | IC50 [nM]
[2H]C(c1ccnc(NC(=O)[C@@H](NC(=O)c2nonc2C2CC2)[C@H]2CC[C@H](C)CC2)c1)N1C[C@@H](C(F)(F)F)NC1=O (stereo partly drawn) [Example 231, 4-Cyclopropyl-N-((1S)-1-((1r,4S)-4-methylcyclohexyl)-2-oxo-2-((4-(((S)-2-oxo-4-(trifluoromethyl)imidazolidin-1-yl)methyl-d)pyridin-2-yl)amino)ethyl)-1,2,5-oxadiazole-3-carboxamide] | 38
[2H]C([2H])([2H])C([2H])([2H])n1ccc(C(=O)N[C@H](C(=O)Nc2cc([C@@H](COC)N3C[C@@H](C(F)(F)F)NC3=O)ccn2)C2CCC(F)(F)CC2)n1 [Example 190, N-((S)-1-(4,4-difluorocyclohexyl)-2-((4-((S)-2-methoxy-1-((S)-2-oxo-4-(trifluoromethyl)imidazolidin-1-yl)ethyl)pyridin-2-yl)amino)-2-oxoethyl)-1-(ethyl-d5)-1H-pyrazole-3-carboxamide] | 816
CCc1ncoc1C(=O)NC(C(=O)Nc1cc(C[C@H]2C[C@@H](C(F)(F)F)NC2=O)ccn1)C1CCC(F)(F)CC1 (stereo in doubt) [Example 217, N—((S)-1-(4,4-difluorocyclohexyl)-2-oxo-2-((4-(((3S,5S)-2-oxo-5-(trifluoro-methyl)pyrrolidin-3-yl)methyl)pyridin-2-yl)amino)ethyl)-4-ethyloxazole-5-carboxamide] | 465
COC[C@H](c1ccnc(NC(=O)[C@@H](NC(=O)c2nonc2OCC(F)(F)F)C2CCC(F)(F)CC2)c1)N1C[C@@H](C(F)(F)F)NC1=O [Example 193, N-((S)-1-(4,4-difluorocyclohexyl)-2-((4-((S)-2-methoxy-1-((S)-2-oxo-4-(trifluoromethyl)imidazolidin-1-yl)ethyl)pyridin-2-yl)amino)-2-oxoethyl)-4-(2,2,2-trifluoroethoxy)-1,2,5-oxadiazole-3-carboxamide] | 105
CCn1nccc1C(=O)N[C@H](C(=O)Nc1cc([C@@H](C)N2C[C@@H](C(F)(F)F)NC2=O)ccn1)[C@H]1CC[C@H](C)CC1 [Example 239, 1-ethyl-N-((S)-1-((1r,4S)-4-methylcyclohexyl)-2-oxo-2-((4-((R)-1-((S)-2-oxo-4-(trifluoromethyl)imidazolidin-1-yl)ethyl)pyridin-2-yl)amino)ethyl)-1H-pyrazole-5-carboxamide] | 16
Cn1nccc1C(=O)N[C@H](C(=O)Nc1cc(C[C@H]2C[C@@H](C(F)(F)F)NC2=O)ccn1)C1CCC(F)(F)CC1 [Example 224, N-((S)-1-(4,4-difluorocyclohexyl)-2-oxo-2-((4-(((3S,5S)-2-oxo-5-(trifluoromethyl)pyrrolidin-3-yl)methyl)pyridin-2-yl)amino)ethyl)-1-methyl-1H-pyrazole-5-carboxamide] | 135
NCC1(c2nocc2C(=O)N[C@H](C(=O)Nc2cc(CN3C[C@@H](C(F)(F)F)NC3=O)ccn2)C2CCC(F)(F)CC2)CC1 [Example 22, 3-(1-(Aminomethyl)cyclopropyl)-N—((S)-1-(4,4-difluorocyclohexyl)-2-oxo-2-((4-(((S)-2-oxo-4-(trifluoromethyl)imidazolidin-1-yl)methyl)pyridin-2-yl)amino)ethyl)isoxazole-4-carboxamide HCl salt] | 9230
CC(C)n1nccc1C(=O)N[C@H](C(=O)Nc1cc(OC2CCNC2=O)ccn1)[C@H]1CC[C@H](C)CC1 (stereo partly drawn) [Example 119, 1-isopropyl-N-((1S)-1-((1r,4S)-4-methylcyclohexyl)-2-oxo-2-((4-((2-oxopyrrolidin-3-yl)oxy)pyridin-2-yl)amino)ethyl)-1H-pyrazole-5-carboxamide] | 3990
Cn1nccc1C(=O)NC(C(=O)Nc1cc(CN2CC(C(F)(F)F)NC2=O)ccn1)C1CCC(F)CC1 [Example 294, N-((S)-1-((1r,4S)-4-fluorocyclohexyl)-2-oxo-2-((4-(((S)-2-oxo-4-(trifluoromethyl)imidazolidin-1-yl)methyl)pyridin-2-yl)amino)ethyl)-1-methyl-1H-pyrazole-5-carboxamide] | 374
COCC(c1ccnc(NC(=O)[C@@H](NC(=O)Cc2cc(C)no2)[C@H]2CC[C@H](C)CC2)c1)N1C[C@@H](C(F)(F)F)NC1=O (single isomer, unassigned) [Example 123] | 65
COCC(c1ccnc(NC(=O)[C@@H](NC(=O)c2conc2C2CC2)[C@H]2CC[C@H](C)CC2)c1)N1C[C@@H](C(F)(F)F)NC1=O (single isomer, unassigned) [Example 126] | 21
CCc1nocc1C(=O)N[C@H](C(=O)Nc1cc(C(C)(C)N2C[C@@H](C(F)(F)F)NC2=O)ccn1)C1CCC(F)(F)CC1 [Example 173, N-((S)-1-(4,4-difluorocyclohexyl)-2-oxo-2-((4-(2-((S)-2-oxo-4-(trifluoromethyl)imidazolidin-1-yl)propan-2-yl)pyridin-2-yl)amino)ethyl)-3-ethylisoxazole-4-carboxamide] | 187
CCC(c1ccnc(NC(=O)C(NC(=O)c2ccnn2C)C2CCC(C)CC2)c1)N1CC(C(F)(F)F)NC1=O [Example 259, 1-methyl-N-((S)-1-((1r,4S)-4-methylcyclohexyl)-2-oxo-2-((4-((R)-1-((S)-2-oxo-4-(trifluoromethyl)imidazolidin-1-yl)propyl)pyridin-2-yl)amino)ethyl)-1H-pyrazole-5-carboxamide] | 6
Cc1nonc1COC(=O)N[C@H](C(=O)Nc1cc(CN2C[C@@H](C(F)(F)F)NC2=O)ccn1)C1CCC(F)(F)CC1 [Example 70, (4-Methyl-1,2,5-oxadiazol-3-yl)methyl ((S)-1-(4,4-difluorocyclohexyl)-2-oxo-2-((4-(((S)-2-oxo-4-(trifluoromethyl)imidazolidin-1-yl)methyl)pyridin-2-yl)amino)ethyl)carbamate] | 8000
COC[C@H](c1ccnc(NC(=O)[C@@H](NC(=O)Cc2cccc(C#N)c2)C2CCC(F)(F)CC2)c1)N1C[C@@H](C(F)(F)F)NC1=O [Example 206, (S)-2-(2-(3-cyanophenyl)acetamido)-2-(4,4-difluorocyclohexyl)-N-(4-((S)-2-methoxy-1-((S)-2-oxo-4-(trifluoromethyl)imidazolidin-1-yl)ethyl)pyridin-2-yl)acetamide] | 157
C[C@H]1CC[C@H]([C@H](NC(=O)c2nonc2C2CC2)C(=O)Nc2cc(C[C@@H]3C[C@@H](C(F)(F)F)NC3=O)ccn2)CC1 [Example 152, 4-cyclopropyl-N—((S)-1-((1r,4S)-4-methylcyclohexyl)-2-oxo-2-((4-(((3R,5S)-2-oxo-5-(trifluoromethyl)pyrrolidin-3-yl)methyl)pyridin-2-yl)amino)ethyl)-1,2,5-oxadiazole-3-carboxamide] | 2030

Continued by falling IC50, values first:

IC50 [nM] | SMILES
10300 | CC(C)(C)OC(=O)N[C@H](C(=O)Nc1cc(COC(=O)NCC(F)(F)F)ccn1)C1CCC(F)(F)CC1 [Example 45, Tert-butyl (S)-(1-(4,4-difluorocyclohexyl)-2-oxo-2-((4-((((2,2,2-trifluoroethyl)carbamoyl)oxy)methyl)pyridin-2-yl)amino)ethyl)carbamate]
5490 | COCC(c1ccnc(NC(=O)[C@@H](NC(=O)c2nc(Cl)ncc2C)[C@H]2CC[C@H](C)CC2)c1)N1C[C@@H](C(F)(F)F)NC1=O (single isomer, unassigned) [Example 95]
1830 | CCn1nccc1C(=O)N[C@H](C(=O)Nc1cc(C(COC)NC(=O)CCC(F)(F)F)ccn1)C1CCC(F)(F)CC1 (single isomer, unassigned) [Example 144]
1400 | Cc1nonc1C(=O)N[C@H](C(=O)Nc1cc(CN2C[C@@H](C(F)(F)F)NC2=O)c(F)cn1)[C@H]1CC[C@H](C)CC1 [Example 62, N-((S)-2-((5-fluoro-4-(((S)-2-oxo-4-(trifluoromethyl)-imidazolidin-1-yl)methyl)-pyridin-2-yl)amino)-1-((1r,4S)-4-methylcyclo-hexyl)-2-oxoethyl)-4-methyl-1,2,5-oxadiazole-3-carboxamide]
1210 | CC(C)n1nccc1C(=O)N[C@H](C(=O)Nc1cc(O[C@@H]2C[C@@H](C(F)(F)F)NC2=O)ccn1)[C@H]1CC[C@H](C)CC1 [Example 323, 1-isopropyl-N—((S)-1-((1r,4S)-4-methylcyclohexyl)-2-oxo-2-((4-(((3R,5S)-2-oxo-5-(trifluoromethyl)pyrrolidin-3-yl)oxy)pyridin-2-yl)amino)ethyl)-1H-pyrazole-5-carboxamide]
157 | Cc1nonc1C(=O)N[C@H](C(=O)Nc1cc(C[C@H]2C[C@@H](C(F)(F)F)NC2=O)ccn1)C1CCC(F)(F)CC1 [Example 221, N-((S)-1-(4,4-difluorocyclohexyl)-2-oxo-2-((4-(((3S,5S)-2-oxo-5-(trifluoromethyl)pyrrolidin-3-yl)methyl)pyridin-2-yl)amino)ethyl)-4-methyl-1,2,5-oxadiazole-3-carboxamide]
125 | COC[C@H](c1ccnc(NC(=O)C(NC(=O)c2ccnn2C(C)C)C2CCC(F)CC2)c1)N1C[C@@H](C(F)(F)F)NC1=O (single isomer, unassigned) [Example 289]
72 | COCC(NC(=O)CCC(F)(F)F)c1ccnc(NC(=O)C(NC(=O)c2ccnn2C(C)C)C2CCC(C)CC2)c1 [Example 246, 1-isopropyl-N-((1S)-2-((4-(2-methoxy-1-(4,4,4-trifluorobutanamido)ethyl)pyridin-2-yl)amino)-1-((1r,4S)-4-methylcyclohexyl)-2-oxoethyl)-1H-pyrazole-5-carboxamide]
36 | COC[C@H](c1ccnc(NC(=O)[C@H](COC(C)(C)C(F)(F)F)NC(=O)c2ccnn2C)c1)N1C[C@@H](C(F)(F)F)NC1=O [Example 271, N-((S)-1-((4-((S)-2-methoxy-1-((S)-2-oxo-4-(trifluoromethyl)imidazolidin-1-yl)ethyl)pyridin-2-yl)amino)-1-oxo-3-((1,1,1-trifluoro-2-methylpropan-2-yl)oxy)propan-2-yl)-1-methyl-1H-pyrazole-5-carboxamide]
